Assay results published in patent US4229371A, “Ureylene naphthalene sulfonic acid intermediates” (American Cyanamid Company, priority 1978, dated 1980).
Structures can show the parent of a compound that is named as a salt. Where two headings read alike, the source gives them in different places.

Experiments:
[1] = test system: whole complement; assay: In vivo activity, complement level reduction in serum of dosed guinea pigs (capillary tube assay); design: species or system guinea pig
[2] = test system: late components of human complement (C3-C9); assay: Test, Code 035 (C3-C9 inhibitor); assay type: cell-based; conditions: higher well number indicates higher activity
From the text: (§1) An active inhibitor protects C2 from C1 and C4; (ii) Test, Code 035 (C3-C9 inhibitor)--This test determines the ability of the late components of human complement (C3-C9) to lyse EAC 142 in the presence of appropriate dilutions of the test compound. An active inhibitor protects EAC 142 from lysis by human C3-C9; (iii) Test, Code 036 (C-Shunt inhibitor)--In this test human erythrocytes rendered fragile are lysed in autologous serum via the shunt pathway activated by cobra venom factor in the presence of appropriate dilutions of the test compound. Inhibition of the shunt pathway results in failure of lysis; (iv) Forssman Vasculitis Test--Here, the well known complement dependent lesion, Forssman vasculitis, is produced in guinea pigs by intradermal injection of rabbit anti-Forssman antiserum. The lesion is measured in terms of diameter, edema and hemorrhage and the extent to which a combined index of these is inhibited by prior intraperitoneal injection of the test compound at 200 mg/kg is then reported, unless otherwise stated; (v) Forssman Shock Test--Lethan shock is produced in guinea pigs by an i.v. injection of anti-Forssman antiserum and the harmonic mean death time of treated guinea pigs is compared with that of simultaneous controls; (vi) Complement Level Reduction Test--In this test, the above dosed guinea pigs, or others, are bled for serum and the complement level is determined in undiluted serum by the capillary tube method of U.S. Pat. No. 3,876,376 and compared to undosed control guinea pigs; and (vii) Cap 50 Test--Here, appropriate amounts of the test compound are added to a pool of guinea pig serum in vitro, after which the undiluted serum capillary tube assay referred to above is run. The concentration of compound inhibiting 50% is reported.
(§2) *Code designation for tests employed as referred herein.
(§3) **Activity in wells a serial dilution assay. Higher well number indicates
(§4) higher activity. The serial dilutions are twofold.

[3] = test system: shunt pathway activated by cobra venom factor; assay: Test, Code 036 (C-Shunt inhibitor); assay type: cell-based, human; conditions: higher well number indicates higher activity
From the text: as §1, §2, §3, §4

[4] = target: T1, activated human C1 (Homo sapiens, UniProt P09871); assay: Test, Code 026 (C1 inhibitor); assay type: biochemical; conditions: higher well number indicates higher activity
T1 construct: test of C2 destruction in presence of C4
T1 sequence (P09871 16-688): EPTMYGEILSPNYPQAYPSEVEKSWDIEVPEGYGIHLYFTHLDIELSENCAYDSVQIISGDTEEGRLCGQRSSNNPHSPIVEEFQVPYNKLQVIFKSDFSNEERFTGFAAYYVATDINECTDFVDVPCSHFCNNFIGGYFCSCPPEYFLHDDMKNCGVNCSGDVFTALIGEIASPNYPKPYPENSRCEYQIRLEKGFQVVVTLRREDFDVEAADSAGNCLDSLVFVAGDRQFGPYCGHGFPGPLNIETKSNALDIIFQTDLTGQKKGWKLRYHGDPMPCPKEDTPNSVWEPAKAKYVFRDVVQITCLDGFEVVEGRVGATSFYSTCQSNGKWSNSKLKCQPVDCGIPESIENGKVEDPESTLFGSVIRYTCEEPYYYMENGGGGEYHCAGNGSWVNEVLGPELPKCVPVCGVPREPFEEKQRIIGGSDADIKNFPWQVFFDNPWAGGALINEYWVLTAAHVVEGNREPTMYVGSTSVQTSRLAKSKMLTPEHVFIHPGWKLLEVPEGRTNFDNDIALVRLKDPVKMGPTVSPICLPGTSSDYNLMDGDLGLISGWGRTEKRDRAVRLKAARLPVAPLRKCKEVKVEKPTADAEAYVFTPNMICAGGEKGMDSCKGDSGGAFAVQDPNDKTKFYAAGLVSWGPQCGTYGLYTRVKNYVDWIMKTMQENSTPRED
T1 sequence (P00736 18-705 partner): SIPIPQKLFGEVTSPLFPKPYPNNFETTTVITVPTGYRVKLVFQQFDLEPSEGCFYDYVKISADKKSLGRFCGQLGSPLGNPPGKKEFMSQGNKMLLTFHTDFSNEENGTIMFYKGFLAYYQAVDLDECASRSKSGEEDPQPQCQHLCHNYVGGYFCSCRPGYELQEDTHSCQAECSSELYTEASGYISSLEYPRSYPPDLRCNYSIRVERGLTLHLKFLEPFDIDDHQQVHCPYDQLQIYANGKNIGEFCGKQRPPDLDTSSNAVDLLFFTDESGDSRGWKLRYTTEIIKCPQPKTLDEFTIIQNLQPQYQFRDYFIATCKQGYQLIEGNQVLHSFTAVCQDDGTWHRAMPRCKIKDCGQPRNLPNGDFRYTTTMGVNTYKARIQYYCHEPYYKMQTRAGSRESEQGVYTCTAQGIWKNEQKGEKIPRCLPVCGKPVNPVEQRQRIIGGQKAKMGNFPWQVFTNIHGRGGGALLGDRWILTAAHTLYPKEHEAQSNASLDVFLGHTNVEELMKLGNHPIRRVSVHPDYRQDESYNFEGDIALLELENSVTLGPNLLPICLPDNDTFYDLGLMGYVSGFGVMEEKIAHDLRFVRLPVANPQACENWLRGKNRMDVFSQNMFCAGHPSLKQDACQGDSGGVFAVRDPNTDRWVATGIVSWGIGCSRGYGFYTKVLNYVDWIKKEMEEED
T1 sequence (P02745 23-245 partner): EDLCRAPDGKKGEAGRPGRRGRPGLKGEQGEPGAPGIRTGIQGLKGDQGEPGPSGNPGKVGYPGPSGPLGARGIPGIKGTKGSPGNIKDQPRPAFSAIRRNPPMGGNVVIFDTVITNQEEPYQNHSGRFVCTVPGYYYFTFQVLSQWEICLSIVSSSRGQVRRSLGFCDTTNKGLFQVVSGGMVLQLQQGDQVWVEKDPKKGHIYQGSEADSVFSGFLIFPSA
T1 sequence (P02746 28-253 partner): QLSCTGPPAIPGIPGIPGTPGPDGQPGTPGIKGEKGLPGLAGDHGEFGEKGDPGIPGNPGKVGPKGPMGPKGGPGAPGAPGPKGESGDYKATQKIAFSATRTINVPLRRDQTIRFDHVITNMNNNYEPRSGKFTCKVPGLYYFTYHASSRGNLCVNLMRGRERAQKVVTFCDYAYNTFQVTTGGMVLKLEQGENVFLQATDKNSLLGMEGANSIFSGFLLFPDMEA
T1 sequence (P02747 29-245 partner): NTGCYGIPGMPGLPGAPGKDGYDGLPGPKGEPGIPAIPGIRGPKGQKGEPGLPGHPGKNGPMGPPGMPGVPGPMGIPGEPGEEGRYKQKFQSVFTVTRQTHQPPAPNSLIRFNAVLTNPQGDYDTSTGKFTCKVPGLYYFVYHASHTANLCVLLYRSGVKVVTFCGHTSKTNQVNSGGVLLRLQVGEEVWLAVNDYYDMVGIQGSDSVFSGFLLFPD
From the text: as §1, §2, §3, §4

[5] = test system: complement system; conditions: in words; literature; cited from earlier work
[6] = in words; literature; cited from earlier work
[7] = test system: total hemolytic complement activity; conditions: human serum; in words; cited from earlier work
[8] = test system: total hemolytic complement activity; conditions: human serum, in vitro; in words; cited from earlier work
[9] = Table I, activity in wells, twofold serial dilution assay
[10] = Table II, intraperitoneal, time 30 min.
[11] = Table II, intraperitoneal, time 60 min.
[12] = Table II, intraperitoneal, time 120 min.
[13] = Table II, intravenous, time 2 min.
[14] = Table II, intravenous, time 30 min.
[15] = Table II, intravenous, time 120 min.
[16] = Table II (intermediates), twofold serial dilution

Question: For O=C(Nc1ccc(C(=O)Nc2cc(C(=O)Nc3cc(S(=O)(=O)O)cc4cc(S(=O)(=O)O)cc(S(=O)(=O)O)c34)cc(C(=O)Nc3cc(S(=O)(=O)O)cc4cc(S(=O)(=O)O)cc(S(=O)(=O)O)c34)c2)c(S(=O)(=O)O)c1)Nc1ccc(C(=O)Nc2cc(C(=O)Nc3cc(S(=O)(=O)O)cc4cc(S(=O)(=O)O)cc(S(=O)(=O)O)c34)cc(C(=O)Nc3cc(S(=O)(=O)O)cc4cc(S(=O)(=O)O)cc(S(=O)(=O)O)c34)c2)c(S(=O)(=O)O)c1 [8,8',8",8'"Ureylenebis[(2-sulfo-4,1-phenylene)carbonylimino-s-phenenylbis(carbonylimino)]tetra-1,3,6-naphthalenetrisulfonic acid tetradecyl sodium salt], which “In Vivo Activity (Guinea Pig) % Inhibition” value ([1]; Table I, intravenous, 200 mg/kg, time 2 minutes) is on record?
Answer: -97%

Question: And the “In Vivo Activity (Guinea Pig) % Inhibition” value ([1]; Table I, intravenous, 200 mg/kg, time 30 minutes)?
Answer: -96%

Question: And the “In Vivo Activity (Guinea Pig) % Inhibition” value ([1]; Table I, intravenous, 200 mg/kg, time printed 20 minutes)?
Answer: -95%

Question: And the “C-Late 035 Wells” value [2, 9]?
Answer: +5 Wells

Question: What about the “Shunt Inhibition 036 Wells” value [3, 9] of the same compound?
Answer: +5 Wells

Question: And the “Cl 026 Wells” value [4, 9]?
Answer: +8 Wells

Question: Which “In Vivo Activity (Guinea Pig) % Inhibition” value [1, 10] does the source give for Nc1ccc(C(=O)Nc2cc(C(=O)Nc3cc(S(=O)(=O)O)cc4cc(S(=O)(=O)O)cc(S(=O)(=O)O)c34)cc(C(=O)Nc3cc(S(=O)(=O)O)cc4cc(S(=O)(=O)O)cc(S(=O)(=O)O)c34)c2)c(S(=O)(=O)O)c1 [8,8'-[5-(4-Amino-2-sulfobenzamido)-1,3-phenylenedicarbonylimino]di-1,3,6-naphthalenetrisulfonic acid heptasodium salt] here?
Answer: -45%

Question: What about the “In Vivo Activity (Guinea Pig) % Inhibition” value [1, 11] of the same compound?
Answer: -61%

Question: And the “In Vivo Activity (Guinea Pig) % Inhibition” value [1, 12]?
Answer: -73%

Question: And the “In Vivo Activity (Guinea Pig) % Inhibition” value [1, 13]?
Answer: -98%

Question: What about the “In Vivo Activity (Guinea Pig) % Inhibition” value [1, 14] of the same compound?
Answer: -79%

Question: What about the “In Vivo Activity (Guinea Pig) % Inhibition” value [1, 15] of the same compound?
Answer: -45%

Question: And the “C-Late 035 Wells” value [2, 16]?
Answer: +3 Wells

Question: And the “Shunt Inhibition 036 Wells” value [3, 16]?
Answer: +2 Wells

Question: What about the “Cl 026 Wells” value [4, 16] of the same compound?
Answer: +6 Wells

Question: For O=C(Nc1cc(S(=O)(=O)O)cc2cc(S(=O)(=O)O)cc(S(=O)(=O)O)c12)c1cc(NC(=O)c2ccc([N+](=O)[O-])cc2S(=O)(=O)O)cc(C(=O)Nc2cc(S(=O)(=O)O)cc3cc(S(=O)(=O)O)cc(S(=O)(=O)O)c23)c1 [8,8'-[5-(4-Nitro-2-sulfobenzamido)-1,3-phenylenedicarbonylimino]di-1,3,6-naphthalenetrisulfonic acid heptasodium salt], which “In Vivo Activity (Guinea Pig) % Inhibition” value [1, 10] is on record?
Answer: -40%

Question: What about the “In Vivo Activity (Guinea Pig) % Inhibition” value [1, 11] of the same compound?
Answer: -55%

Question: What about the “In Vivo Activity (Guinea Pig) % Inhibition” value [1, 12] of the same compound?
Answer: -74%

Question: And the “In Vivo Activity (Guinea Pig) % Inhibition” value [1, 13]?
Answer: -91%

Question: What about the “In Vivo Activity (Guinea Pig) % Inhibition” value [1, 14] of the same compound?
Answer: -59%

Question: What about the “In Vivo Activity (Guinea Pig) % Inhibition” value [1, 15] of the same compound?
Answer: -51%

Question: What about the “C-Late 035 Wells” value [2, 16] of the same compound?
Answer: +2 Wells

Question: What about the “Shunt Inhibition 036 Wells” value [3, 16] of the same compound?
Answer: +1 Wells

Question: And the “Cl 026 Wells” value [4, 16]?
Answer: +4 Wells

Question: For Cc1ccc(C(=O)Nc2ccc(S(=O)(=O)O)c3cc(S(=O)(=O)O)cc(S(=O)(=O)O)c23)cc1NC(=O)c1cccc(NC(=O)Nc2cccc(C(=O)Nc3cc(C(=O)Nc4ccc(S(=O)(=O)O)c5cc(S(=O)(=O)O)cc(S(=O)(=O)O)c45)ccc3C)c2)c1 [Suramin], which “anticomplementary effect / complement inhibition” value [5] is on record?
Answer: competitive inhibitor of the complement system

Question: Which “anticomplementary effect / complement inhibition” value [5] does the source give for Nc1ccc2cc(S(=O)(=O)O)cc(O)c2c1N=Nc1ccc(NC(=O)Nc2ccc(N=Nc3c(N)ccc4cc(S(=O)(=O)O)cc(O)c34)c(S(=O)(=O)O)c2)cc1S(=O)(=O)O [chlorazol fast pink, 3,3'-ureylenebis-[6-(2-amino-8-hydroxy-6-sulfo-1-naphthylazo)]benzenesulfonic acid, tetrasodium salt] here?
Answer: anticomplementary effect

Question: Which “success in the treatment of hereditary angioneurotic edema” value [6] does the source give for NCCCCCC(=O)O [epsilon-aminocaproic acid] here?
Answer: used with success in the treatment of hereditary angioneurotic edema

Question: For NC[C@H]1CC[C@H](C(=O)O)CC1 [tranexamic acid], which “success in the treatment of hereditary angioneurotic edema” value [6] is on record?
Answer: used with success in the treatment of hereditary angioneurotic edema

Question: Which “anticomplementary effect / complement inhibition” value [5] does the source give for heparin here?
Answer: anticomplementary effect

Question: With pentosanpoly-sulfoester as the compound, how does the “anticomplementary activity (reduction in total hemolytic complement activity)” value [7] read?
Answer: anticomplementary activity on human serum both in vitro and in vivo

Question: And the “anticomplementary activity (reduction in total hemolytic complement activity)” value [8]?
Answer: anticomplementary activity on human serum both in vitro and in vivo
